The METLIN SMRT retention time set (Domingo-Almenara et al. 2019)

Experiment: gradient 5% acetonitrile 3 min, to 50% in 2 min, to 85% in 15 min, held 3 min, 100 µL/min
Conditions: column: Zorbax Extend-C18 2.1 x 50 mm; eluents: water / acetonitrile, 0.1% formic acid
Method in brief: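 Pure standards were analyzed in mixtures of ~100 molecules using HPLC coupled to a quadrupole time-of-flight mass spectrometer, in both positive and negative ionization mode. Separation used a Zorbax Extend-C18 column (2.1 × 50 mm, 1.8 μm) at 100 μL/min, with water and acetonitrile each containing 0.1% formic acid. Dead and dwell volumes were 40 μL and 900 μL, and data were collected over 3 months. Retention time was read from computationally picked adduct peaks, each inspected manually.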

| SMILES | RP-LC retention time |
| --- | --- |
| Cc1nc(C)c(C(=O)N/N=C/c2ccc(N(CCCl)CCCl)cc2)s1 | 942 s |
| COc1ccc(-c2c(C(=O)NC(C)C)nc3ccccn23)cc1 | 676 s |
| Cc1c(C#N)c2ccccc2n1CC(=O)NC(C)c1ccc2c(c1)OCCCO2 (stereo not given) | 892 s |
| CCn1cc(-c2ccc(F)cc2)cc1C(=O)N1CCC2(CC1)OCCO2 | 963 s |
| Cc1ccc(CNC(=O)CSc2nc3nc(C)cc(C)n3n2)cc1 | 697 s |
| CCCn1c(=O)c(C)nc2cc(-c3noc(-c4ccc(Br)o4)n3)ccc21 | 1160 s |
| COc1ccc2c(c1)C1(CCN(S(=O)(=O)c3cccc(C)c3)C1)C(=O)N2C (stereo not given) | 941 s |
| CCN1CCN(c2cc(C)c3cc(NC(=O)c4ccc([N+](=O)[O-])c(C)c4)ccc3n2)CC1 | 621 s |
| CC1CCCCN1CCNC(=O)CCC(=O)N1CCc2c(c(C(=O)N3CCCCC3)nn2C)C1 (stereo not given) | 585 s |
| O=C(COc1ccc(F)cc1)N1CCN(C(=O)c2nnn3c2COC(c2ccc(Cl)cc2)C3)CC1 (stereo not given) | 937 s |
| CN1C(=O)[C@H]2CN(Cc3ccc(F)c(Cl)c3)C[C@H]2C1=O | 623 s |
| COc1cccc(-c2ccnc3nc(CCc4ccccc4)nn23)c1 | 970 s |
| CCN(CCN(C)C)C(=O)CN1C(=O)C(Oc2ccc(F)cc2)C12CCCCC2 (stereo not given) | 724 s |
| COc1ccc(-c2noc(C3CCCN3C(=O)c3cc(F)cc(F)c3)n2)cc1OC (stereo not given) | 937 s |
| CN(CCc1noc(COc2ccccc2)n1)C(=O)c1c(F)cccc1F | 872 s |
| CCOc1ccc(-c2cc(C(F)(F)F)nn2-c2nc(-c3ccc(F)cc3)cs2)cc1 | 882 s |
| O=C(NCc1ccccc1F)c1ccc2c(c1)CN(Cc1cccc(F)c1)CCO2 | 675 s |
| Cc1nc(-c2cc(S(=O)(=O)N3CCN(c4cccc(Cl)c4)CC3)c(C)s2)cs1 | 1270 s |
| O=C(Nc1ccccc1)Nc1ccc2nnc(C3CC3)n2c1 | 703 s |
| CCCc1cc(C2CCCN2C(=O)Nc2cccc(C)c2)no1 (stereo not given) | 945 s |

Other lines, results leading:

| RP-LC retention time | SMILES |
| --- | --- |
| 861 s | O=C(NCc1cccs1)C1CCN(S(=O)(=O)c2cc(C(=O)N3CCCCCC3)cs2)CC1 |
| 804 s | COCCNC(=O)C1CCN(c2nc3ccc(-c4cccc(OC)c4)nc3s2)CC1 |
| 632 s | COCCn1c(CCCC(=O)NCc2ccc3c(c2)OCO3)nc2cccnc21 |
| 864 s | Cc1csc(-c2cc(S(=O)(=O)NCc3ccco3)c(C)n2C)n1 |
| 741 s | Cc1ccc(NC(=O)CN2CCc3[nH]c4c(C)c(Cl)ccc4c(=O)c3C2)c(Cl)c1 |
| 760 s | O=C(NCc1ccc(F)cc1)c1ccc2c(c1)nc1n2CCN(c2ccccc2)C1=O |
| 1080 s | CCOC(=O)c1[nH]c(C)c(C(=O)C(C)N(CC(C)C)C(=O)c2ccc(Cl)cc2)c1C (stereo not given) |
| 988 s | COc1cccc(N2CCN(C(=O)c3cc4sccc4n3C)CC2)c1 |
| 983 s | CCn1cc(-c2nc(C(=O)Nc3ccc(C)cc3F)cs2)c2cccnc21 |
| 972 s | O=C(CN1C(=O)C(C(=O)N2CCCC2)Sc2ccccc21)NCc1cccc(Br)c1 (stereo not given) |
| 918 s | COc1ccc(-c2nc(N(C)C3CCCCC3)c3ccccc3n2)cc1 |
| 591 s | O=C(c1ccoc1)N1CCCC(c2nnc3n2CCN(C(=O)C2CC2)C3)C1 (stereo not given) |
| 1100 s | COc1ccc(S(=O)(=O)N2CCc3nc(-c4ccc(Cl)cc4)ncc3C2)cc1 |
| 882 s | Cn1cc(-c2cc3n(n2)CCC(=O)N3CC(=O)NC2CCCc3ccccc32)c2ccccc21 (stereo not given) |
| 616 s | COC(=O)C(Cc1ccccc1)NC(=O)N1CCCn2nc(-c3ccncc3)cc2C1 (stereo not given) |
